Test results as given in ChEMBL document CHEMBL3797190, “Development of 3,5-Dinitrobenzylsulfanyl-1,3,4-oxadiazoles and Thiadiazoles as Selective Antitubercular Agents Active Against Replicating and Nonreplicating Mycobacterium tuberculosis” (J Med Chem, 2016).
In brackets after ≈: the same amount, converted by molar mass. Activity calls are given as the source filed them. The rule behind the calls is not given here.

What was measured:
[1] = Cytotoxicity against human HuH7 cells assessed as cell viability after 48 hrs by MTS assay; format: cell-based; conditions: Huh-7, 48 h
[2] = Cytotoxicity against MDCK2-MDR1 cells assessed as cell viability at 20 uM after 48 hrs by MTS assay; format: ADME, cell-based, Canis lupus familiaris, MDCK-II; conditions: dog, read-out: Activity
[3] = Cytotoxicity against human HuH7 cells assessed as cell viability at 20 uM after 24 hrs by MTS assay; format: cell-based, Huh-7; conditions: read-out: Activity
Hepatocyte = test: Cytotoxicity against primary human hepatocytes assessed as cell viability after 48 hrs by MTS assay; format: cell-based
[4] = test system: Mycobacterium tuberculosis; test: Antimycobacterial activity against Mycobacterium tuberculosis H37Ra assessed as growth inhibition at 0.05 ug/ml preincubated for 1 hr followed by radiolabeling with [14C]-uracil, [14C]-methionine for 24 hrs; format: functional, organism-based
[5] = Cytotoxicity against human HeLa cells assessed as cell viability at 20 uM after 48 hrs by MTS assay; format: cell-based; conditions: read-out: Activity
[6] = Cytotoxicity against MDCK2-MDR1 cells assessed as cell viability after 48 hrs by MTS assay; format: ADME, cell-based; conditions: Canis lupus familiaris, MDCK-II
HeLa [7] = test: Cytotoxicity against human HeLa cells assessed as cell viability after 48 hrs by MTS assay; format: cell-based
[8] = test system: Mycobacterium tuberculosis; test: Inhibition of proteosynthesis in Mycobacterium tuberculosis H37Ra assessed as reduction of [14C]-methionine incorporation at 0.05 ug/ml preincubated for 1 hr followed by radiolabeling with [14C]-methionine for 24 hrs by scintillation spectrometry; format: functional
[9] = Cytotoxicity against human HeLa cells assessed as cell viability at 20 uM after 24 hrs by MTS assay; format: cell-based; conditions: read-out: Activity
[10] = Cytotoxicity against primary human hepatocytes assessed as cell viability at 20 uM after 48 hrs by MTS assay; format: cell-based, Hepatocyte; conditions: read-out: Activity
[11] = Cytotoxicity against MDCK2-MDR1 cells assessed as cell viability after 24 hrs by MTS assay; format: ADME, cell-based; conditions: Canis lupus familiaris, MDCK-II
[12] = test system: Mycobacterium tuberculosis; test: Inhibition of RNA biosynthesis in Mycobacterium tuberculosis H37Ra assessed as reduction of [14C]-uracil incorporation at 0.05 ug/ml preincubated for 1 hr followed by radiolabeling with [14C]-uracil for 24 hrs by scintillation spectrometry; format: functional
[13] = Cytotoxicity against MDCK2-MDR1 cells assessed as cell viability at 20 uM after 24 hrs by MTS assay; format: ADME, cell-based, Canis lupus familiaris, MDCK-II; conditions: dog, read-out: Activity
HeLa [14] = test: Cytotoxicity against human HeLa cells assessed as cell viability after 24 hrs by MTS assay; format: cell-based
[15] = Cytotoxicity against human HuH7 cells assessed as cell viability after 24 hrs by MTS assay; format: cell-based; conditions: Huh-7, 24 h
[16] = Cytotoxicity against human HuH7 cells assessed as cell viability at 20 uM after 48 hrs by MTS assay; format: cell-based, Huh-7; conditions: read-out: Activity
[17] = test system: Mycobacterium tuberculosis; test: Inhibition of RNA biosynthesis in Mycobacterium tuberculosis H37Ra assessed as reduction of [14C]-uracil incorporation at 5 ug/ml preincubated for 1 hr followed by radiolabeling with [14C]-uracil for 24 hrs by scintillation spectrometry; format: functional, organism-based
[18] = test system: Mycobacterium tuberculosis; test: Antimycobacterial activity against Mycobacterium tuberculosis H37Ra assessed as growth inhibition at 5 ug/ml preincubated for 1 hr followed by radiolabeling with [14C]-uracil, [14C]-methionine for 24 hrs; format: functional, organism-based
[19] = test system: Mycobacterium tuberculosis; test: Inhibition of proteosynthesis in Mycobacterium tuberculosis H37Ra assessed as reduction of [14C]-methionine incorporation at 5 ug/ml preincubated for 1 hr followed by radiolabeling with [14C]-methionine for 24 hrs by scintillation spectrometry; format: functional, organism-based
[20] = test system: Mycobacterium tuberculosis H37Ra; test: Inhibition of DprE1 in Mycobacterium tuberculosis H37Ra assessed as accumulation of trehalose dimycolate at 0.2 ug/ml preincubated for 24 hrs followed by radiolabeling with [14C]-acetate for 24 hrs by TLC/autoradiographic method
[21] = test system: Mycobacterium tuberculosis; test: Antimycobacterial activity against Mycobacterium tuberculosis H37Ra assessed as growth inhibition at 0.2 ug/ml preincubated for 24 hrs followed by radiolabeling with [14C]-acetate for 24 hrs; format: functional; conditions: read-out: GI
Trichosporon asahii = test: Antifungal activity against Trichosporon asahii 1188 after 24 to 48 hrs by broth microdilution method; format: functional
Candida tropicalis = test: Antifungal activity against Candida tropicalis 156 after 24 to 48 hrs by broth microdilution method; format: functional
Salmonella typhimurium [22] = test: Mutagenic activity in Salmonella typhimurium TA100 assessed as reverse mutation at 30 uM by Ames test; format: toxicity, organism-based; conditions: salmonella enterica subsp. enterica serovar typhimurium
Klebsiella pneumoniae [23] = test: Antibacterial activity against ESBL producing Klebsiella pneumoniae J 14368/08 after 24 to 48 hrs by broth microdilution method; format: functional
[24] = test system: Staphylococcus epidermidis; test: Antibacterial activity against Staphylococcus epidermidis H 6966/08 after 24 to 48 hrs by broth microdilution method; format: functional
[25] = test system: Trichophyton mentagrophytes; test: Antifungal activity against Trichophyton mentagrophytes 445 after 72 to 120 hrs by broth microdilution method; format: functional
Pichia kudriavzevii = test: Antifungal activity against Candida krusei E28 after 24 to 48 hrs by broth microdilution method; format: functional
Salmonella typhimurium [26] = test: Mutagenic activity in Salmonella typhimurium TA98 assessed as reverse mutation at 30 uM by Ames test; format: toxicity, organism-based; conditions: salmonella enterica subsp. enterica serovar typhimurium
Escherichia coli = test: Antibacterial activity against Escherichia coli ATCC 8739 after 24 to 48 hrs by broth microdilution method; format: functional
Candida albicans = test: Antifungal activity against Candida albicans ATCC 44859 after 24 to 48 hrs by broth microdilution method; format: functional
Klebsiella pneumoniae [27] = test: Antibacterial activity against Klebsiella pneumoniae D 11750/08 after 24 to 48 hrs by broth microdilution method; format: functional
Nakaseomyces glabratus = test: Antifungal activity against Candida glabrata 20/I after 24 to 48 hrs by broth microdilution method; format: functional
Staphylococcus aureus [28] = test: Antibacterial activity against methicillin-resistant Staphylococcus aureus H 5996/08 after 24 to 48 hrs by broth microdilution method; format: functional
Mycobacterium kansasii = test: Antimycobacterial activity against Mycobacterium kansasii CNCTC My 6509/96 after 21 days by microdilution method; format: functional; conditions: CNCTC My 6509/96, 504 h
Staphylococcus aureus [29] = test: Antibacterial activity against Staphylococcus aureus ATCC 6538 after 24 to 48 hrs by broth microdilution method; format: functional
Enterococcus faecalis = test: Antibacterial activity against Enterococcus faecalis J 14365/08 after 24 to 48 hrs by broth microdilution method; format: functional
Pseudomonas aeruginosa = test: Antibacterial activity against Pseudomonas aeruginosa ATCC 9027 after 24 to 48 hrs by broth microdilution method; format: functional
Lichtheimia corymbifera = test: Antifungal activity against Absidia corymbifera 272 after 24 to 48 hrs by broth microdilution method; format: functional
Aspergillus fumigatus = test: Antifungal activity against Aspergillus fumigatus 231 after 24 to 48 hrs by broth microdilution method; format: functional

CO[C@H]1/C=C/O[C@@]2(C)Oc3c(C)c(O)c4c(O)c(c(/C=N/N5CCN(C)CC5)c(O)c4c3C2=O)NC(=O)/C(C)=C\C=C\[C@H](C)[C@H](O)[C@@H](C)[C@@H](O)[C@@H](C)[C@H](OC(C)=O)[C@@H]1C [RIFAMPIN]
IC50 [1]: > 20 µM | viability at 48 h, 20 µM [2]: 106% | viability at 24 h, 20 µM [3]: 98.3% | IC50 (Hepatocyte): > 20 µM | growth inhibition (GI) [4]: Active | viability at 48 h, 20 µM [5]: 100% | IC50 [6]: > 20 µM | IC50 (HeLa [7]): > 20 µM | inhibition at 0.05 µg/mL [8]: 61% | viability at 24 h, 20 µM [9]: 102% | viability at 48 h, 20 µM [10]: 123% | IC50 [11]: > 20 µM | inhibition at 0.05 µg/mL [12]: 68% | viability at 24 h, 20 µM [13]: 103% | IC50 (HeLa [14]): > 20 µM | IC50 [15]: > 20 µM | viability at 48 h, 20 µM [16]: 52.7%

NC[C@H]1O[C@H](O[C@H]2[C@H](O)[C@@H](O[C@H]3O[C@H](CO)[C@@H](O)[C@H](N)[C@H]3O)[C@H](N)C[C@@H]2N)[C@H](O)[C@@H](O)[C@@H]1O
inhibition [17]: inactive | growth inhibition (GI) [18]: Active | inhibition [19]: Active

C[C@H]1COC2(CCN(c3nc(=O)c4cc(C(F)(F)F)cc([N+](=O)[O-])c4s3)CC2)O1 [BTZ-043]
inhibition [20]: Active | inhibition of growth at 0.2 µg/mL [21]: 38%

O=[N+]([O-])c1cc(CSc2nnc(-c3ccccc3)o2)cc([N+](=O)[O-])c1
IC50 [1]: > 20 µM | viability at 48 h, 20 µM [2]: 42.4% | MIC80 (Trichosporon asahii): > 125 µM | viability at 24 h, 20 µM [3]: 99.3% | MIC80 (Candida tropicalis): > 125 µM | Activity (Salmonella typhimurium [22]): Non-toxic | MIC95 (Klebsiella pneumoniae [23]): > 125 µM | viability at 48 h, 20 µM [5]: 33.2% | MIC95 [24]: > 125 µM | MIC50 [25]: > 125 µM | MIC80 (Pichia kudriavzevii): > 125 µM | Activity (Salmonella typhimurium [26]): Toxic | viability at 24 h, 20 µM [9]: 88.3% | MIC95 (Escherichia coli): > 125 µM | MIC80 (Candida albicans): > 125 µM | MIC95 (Klebsiella pneumoniae [27]): > 125 µM | MIC80 (Nakaseomyces glabratus): > 125 µM | IC50 [11]: > 20 µM | viability at 24 h, 20 µM [13]: 72.6% | MIC95 (Staphylococcus aureus [28]): > 125 µM | IC50 (HeLa [14]): > 20 µM | IC50 [15]: > 20 µM | viability at 48 h, 20 µM [16]: 73.8% | MIC99 (Mycobacterium kansasii): 2 µM (≈ 0.717 µg/mL) | MIC95 (Staphylococcus aureus [29]): > 125 µM | MIC95 (Enterococcus faecalis): > 125 µM | MIC95 (Pseudomonas aeruginosa): > 125 µM | MIC50 (Lichtheimia corymbifera): > 125 µM | MIC50 (Aspergillus fumigatus): > 125 µM
